# Measured values from patent US9486536B2 (Immunomedics, Inc., priority 2013, dated 2016).
# B1: hPAM4-P2PDox (conjugate, chains of the INN, looked up)
# VH: QVQLQQSGAEVKKPGASVKVSCEASGYTFPSYVLHWVKQAPGQGLEWIGYINPYNDGTQYNEKFKGKATLTRDTSINTAYMELSRLRSDDTAVYYCARGFGGSYGFAYWGQGTLVTVSS
# VL: DIQLTQSPSSLSASVGDRVTMTCSASSSVSSSYLYWYQQKPGKAPKLWIYSTSNLASGVPARFSGSGSGTDFTLTISSLQPEDSASYFCHQWNRYPYTFGGGTRLEIK
# modifications: P2PDox (pro-2-pyrrolinodoxorubicin) payload
# B2: hPAM4-SN-38: hPAM4 antibody conjugated to SN-38 (conjugate, chains of the INN, looked up)
# VH: QVQLQQSGAEVKKPGASVKVSCEASGYTFPSYVLHWVKQAPGQGLEWIGYINPYNDGTQYNEKFKGKATLTRDTSINTAYMELSRLRSDDTAVYYCARGFGGSYGFAYWGQGTLVTVSS
# VL: DIQLTQSPSSLSASVGDRVTMTCSASSSVSSSYLYWYQQKPGKAPKLWIYSTSNLASGVPARFSGSGSGTDFTLTISSLQPEDSASYFCHQWNRYPYTFGGGTRLEIK
# modifications: SN-38 conjugate
# What was measured:
# [1] = system: DDD of the RII form of PKA; conditions: cited from earlier work
# [2] = system: NCI-N87 human gastric carcinoma xenografts; assay: therapy of NCI-N87 xenografts in nude mice; type: in vivo; conditions: for effect on tumors, one treatment cycle: 4×45 μg; for therapeutic response (FIG. 3): 2.25 mg/kg protein dose twice weekly×2 weeks, compared with hMN-14 conjugate
# Protocol: FIG. 3A. Therapy in nude mice bearing s.c. human tumor xenografts using 2.25 mg/kg protein dose (0.064 mg/kg of drug dose) of MAb-P2PDox conjugates twice weekly×2 weeks in nude mice (n=7) with NCI-N87 human gastric carcinoma xenografts.
# Tumor size was determined by caliper measurements of length (L) and width (W) with tumor volume calculated as (L×W^2)/2. Tumors were measured and mice weighed twice a week. Mice were euthanized if their tumors reached >1 cm^3 in size, lost greater than 15% of their starting body weight, or otherwise became moribund. Statistical analysis for the tumor growth data was based on area under the curve (AUC) and survival time. Profiles of individual tumor growth were obtained through linear curve modeling. An f-test was employed to determine equality of variance between groups prior to statistical analysis of growth curves. A two-tailed t-test was used to assess statistical significance between all the various treatment groups and non-specific controls. For the saline control analysis a one-tailed t-test was used to assess significance. Survival studies were analyzed using Kaplan-Meier plots (log-rank analysis), using the Prism GraphPad Software (v4.03) software package (Advanced Graphics Software, Inc.; Encinitas, Calif.). All doses in preclinical experiments are expressed in antibody amounts. In terms of drug, 100 μg of antibody (5 mg/kg) in a 20-g mouse, for example, carries 1.4 μg-2.8 μg ([…]) of P2PDox equivalent dose when using an ADC with 3-6 drugs/IgG.
# Using this dosing regimen, we examined the therapeutic effect of hRS7-P2PDox in 2 human tumor xenograft models, Capan-1 (pancreatic cancer) and NCI-N87 (gastric cancer). Therapy began 7 days after tumor transplantation in nude mice.
# Anti-TROP-2 antibody conjugate, hRS7-P2PDox, was evaluated in nude mice bearing NCI-N87 human gastric cancer xenografts by administering a single bolus protein dose of 9 mg/kg, 6.75 mg/kg, 4.5 mg/kg, 2.25 mg/kg, or 1 mg/kg. The therapy was started when the mean tumor volume (mTV) was 0.256 cm^3.
# Further in vivo efficacy studies were performed in nude mice implanted with NCI-N87 human gastric cancer xenografts (FIG. 13A-F).
# The effect of varying dosage schedule on anti-tumor efficacy was examined (FIG. 14, FIG. 19A-G). The experiment began 9 days after tumor implantation when mean tumor volume for all groups was 0.383 cm^3, and ended on day 93 (84 days after initiation of therapy).
# [3] = system: Capan-1, BxPC-3 and AsPC-1 human pancreatic tumor lines and AGS, NCI-N87 and LS147T human gastric and colonic tumor lines; assay: cytotoxicity of P2PDox-mAb conjugates to target cells; type: cell-based; conditions: not shown
# Source text: The cytotoxicity of P2PDox-mAb conjugates to target cells was examined. hRS7-P2PDox and hMN-15-P2PDox were cytotoxic to MDA-MB-468, AG S, NCI-N87 and Capan-1 solid tumor cell lines (not shown). hMN-14-P2PDox was cytotoxic to Capan-1, BxPC-3 and AsPC-1 human pancreatic tumor lines and AGS, NCI-N87 and LS147T human gastric and colonic tumor lines (not shown). hLL2-P2PDOx was cytotoxic to Daudi, Raji, Ramos and JVM-3 hematopoietic tumor lines (not shown). IC50 values for the conjugates were in the nanomolar concentration range (not shown).
# [4] = system: Capan-1 human pancreatic adenocarcinoma xenografts; assay: therapy of Capan-1 xenografts in nude mice; type: in vivo; conditions: for therapeutic response (FIG. 2): 2.25 mg/kg protein dose twice weekly×2 weeks, compared with hMN-14 conjugate
# Protocol: FIG. 2. Therapy in nude mice bearing s.c. human tumor xenografts using 2.25 mg/kg protein dose (0.064 mg/kg of drug dose) of MAb-P2PDox conjugates twice weekly×2 weeks in nude mice with Capan-1 human pancreatic adenocarcinoma xenografts (n=5).
# Tumors were measured and mice weighed twice a week.
# At 63 days after Capan-1 tumor injection (with therapy starting at 1 days post-innoculation), 0 of 10 mice were alive in the saline control, 10 of 10 mice were alive in mice treated twice weekly×2 weeks with 45 μg of hPAM4-P2PDox, 2 of 10 mice were alive in mice treated twice weekly×2 weeks with 45 μg of hA20-P2PDox, 0 of 10 mice were alive in mice treated twice weekly×4 weeks with 250 μg of hPAM4-SN-38, and 0 of 10 mice were alive in mice treated twice weekly×4 weeks with 250 μg of h20-SN-38.
# [5] = system: Chronic Lymphocytic Leukemia (CLL); assay: treatment of CLL patients; type: in vivo, human
# Protocol: Patients with previously untreated or relapsed CLL receive 4 doses of 70, 100 or 150 mg P2PDox-veltuzumab injected i.v. every two weeks. Only occasional mild to moderate transient injection reactions are seen and no other safety issues are observed, except for neutropenia, which can be controlled by interrupting therapy until improved or administering a G-CSF leukocyte stimulator, as per conventional practice. […] Objective responses are observed at all dose levels of P2PDox-veltuzumab, but with particularly high responses of 30% (mostly partial responses) at the highest dose. All serum samples evaluated for human anti-veltuzumab antibody (HAHA) are negative.
# [6] = molecular target: T1, CEACAM5 (Homo sapiens, UniProt P06731); assay: antibody binding to target antigen after conjugation
# T1 sequence (P06731 35-676): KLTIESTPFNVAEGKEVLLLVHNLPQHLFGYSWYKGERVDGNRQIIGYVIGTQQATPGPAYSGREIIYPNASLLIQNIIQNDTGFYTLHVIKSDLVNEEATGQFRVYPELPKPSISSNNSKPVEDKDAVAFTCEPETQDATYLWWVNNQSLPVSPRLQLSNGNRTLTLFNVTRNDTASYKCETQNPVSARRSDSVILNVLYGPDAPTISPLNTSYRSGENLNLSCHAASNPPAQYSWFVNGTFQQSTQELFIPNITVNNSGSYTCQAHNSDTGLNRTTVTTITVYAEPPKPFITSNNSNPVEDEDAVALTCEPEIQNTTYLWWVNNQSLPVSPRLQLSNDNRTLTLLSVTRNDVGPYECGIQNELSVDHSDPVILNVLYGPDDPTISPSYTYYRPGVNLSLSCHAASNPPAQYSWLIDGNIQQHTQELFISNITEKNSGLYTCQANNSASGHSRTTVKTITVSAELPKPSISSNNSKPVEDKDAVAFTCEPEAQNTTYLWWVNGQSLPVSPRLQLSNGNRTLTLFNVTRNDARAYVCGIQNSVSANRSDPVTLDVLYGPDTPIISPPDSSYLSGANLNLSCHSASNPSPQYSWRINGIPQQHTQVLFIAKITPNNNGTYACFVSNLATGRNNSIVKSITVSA
# Protocol: Retention of antibody binding was confirmed by cell binding assays comparing binding of the conjugate to unconjugated antibody (Chari, 2008, Acc Chem Res 41:98-107). The potency of the conjugate was tested in a 4-day MTS assay using appropriate target cells.
# [7] = system: HIV-1IIIB/MuLV infected splenocytes; assay: HIV-1/MuLV infected cell challenge in mice; type: in vivo; conditions: doses of 100-200 μg
# Protocol: P4/D10-P2PDox is tested in vitro for its efficacy in eliminating HIV-1-infected cells among non-infected cells and in a mouse model by removing HIV-1/MuLV (murine leukemia virus) infected syngeneic cells from the intraperitoneal cavity.
# A human T-cell line, CEM-1B, with a genetically integrated MuLV genome is infected with HIV-1IIIB, which leads to the production of pseudoviruses with the HIV-1 genome and the MuLV envelope (Adang et al., PNAS USA 1999, 96:12749-753; Hinkula et al., Cells Tissues Organs 2004, 177:169-184). These virus supernatants are used to infect splenocytes from C57B1/6×DBA F1 K^b/d mice transgenic for HLA-A201. Isogenic mice are challenged with HIV-1IIIB/MuLV infected splenocytes i.p. and are immediately given conjugated antibodies or free antibodies i.p. Ten days after challenge, mice are sacrificed and peritoneal cells collected. Peritoneal cells are pelleted and added to 1×10^6 HIV susceptible Jurkat T-cells or human PBMC grown in 24-well plates. From these secondary cultures, supernatant is removed and fresh medium added every 3-4 days. The amount of infectious HIV recovered in the supernatant is measured for 3 weeks by p24 ELISA.
# To test the efficacy of P4/D10-P2PDox in vivo, mice are given isogeneic HIV/MuLV-infected cells together with conjugates intraperitoneally.
# [8] = MTD study of hLL1 conjugates in mice
# Protocol: The MTD of multiple injections, at a schedule of every four days for a total of four injections (q4dx4) was then determined, using protein doses between 25 μg to 150 μg per injection. At these doses, a cumulative dose of between 100 and 600 μg was given to the animals.
# [9] = system: Trop-2-positive human pancreatic adenocarcinoma cell line (BxPC-3); assay: ADCC with PBMCs, effector to target ratio 100:1; type: cell-based; conditions: 33.3 nM
# Protocol: The ADCC activity of various hRS7-ADC conjugates was determined in comparison to hRS7 IgG (FIG. 17). PBMCs were purified from blood purchased from the Blood Center of New Jersey. A Trop-2-positive human pancreatic adenocarcinoma cell line (BxPC-3) was used as the target cell line with an effector to target ratio of 100:1. ADCC mediated by hRS7 IgG was compared to hRS7-Pro-2-PDox, hRS7-CL2A-SN-38, and the reduced and capped hRS7-NEM. All were used at 33.3 nM.
# [10] = system: metastatic ductal adenocarcinoma of the pancreas; assay: treatment of a patient with metastatic pancreatic cancer; type: in vivo, human
# Protocol: A person with metastatic ductal adenocarcinoma of the pancreas, who has relapsed after prior therapies with FOLFIRINOX followed by Nab-taxol (Abraxane®) plus gemcitabine is given PAM4-P2PDox ADC at a dose of 120 mg every other week for 4 courses, and after a 3-week delay, another course of 2 injections 2 weeks apart are given intravenously.
# [11] = twice weekly×2 weeks with 45 μg
molecule,measurement,setting,value
QIEYVAKQIVDYAIHQA [SuperAKAP-IS],selectivity for the RII isoform of PKA compared with the RI isoform,[1],five order of magnitude higher selectivity
hMN-14-P2PDox,"effect on tumors, one treatment cycle",[2],little effect on tumor progression
same,cytotoxicity,[3],cytotoxic
hA20-P2PDox,therapeutic response (FIG. 2),[4],ineffective
same,mice alive at 63 days after tumor injection,[4]; [11],2 of 10
same,therapeutic response (FIG. 3),[2],ineffective
same,"effect on tumors, one treatment cycle",[2],little effect on tumor progression
same,effect on survival,"[2]; same dosage schedules (45 μg q4dx4, 90 μg weekly×2, 180 μg single)",no effect on survival
same,objective responses at the highest dose,"[5]; 150 mg i.v. every two weeks, 4 doses, mostly partial responses",30%
same,B-cell and CLL ablation,[5]; all dosage levels,Rapid B-cell and CLL ablation
same,human anti-veltuzumab antibody (HAHA) in serum samples,"[5]; human, in vivo",negative
P2PDox-hMN-24: P2PDox conjugate printed as hMN-24 (anti-CEACAM5),effect of conjugation on antibody binding,[6],lack of effect of conjugation on antibody binding to target antigen
QIEYLAKQIVDNAIQQA [AKAP-IS],Kd,[1]; read-out: binding constant for DDD,0.4 nM
hLL1-P2PDox,"effect on tumors, one treatment cycle",[2],little effect on tumor progression
same,protection by control conjugates,[7],None of the P2PDox-conjugated control antibodies (hLL1 or hRS7) provide any protection
same,signs of toxicity (weight loss),[8]; 25 μg i.v. q4dx4,no signs of toxicity
same,potency compared with 2-PDox conjugate of hLL1 in MTD study,[8]; not shown,much more potent
same,MTD for fractionated dosing,"[8]; protein dose, every 4 days for 2 weeks (q4dx4), after analysis and repetition of the experiment",45 µg
same,MTD for multiple injections,"[8]; q4dx4, from this experiment",25 µg
same,dose tolerated when administered as a single injection,[8]; single injection (not shown),100 µg
hRS7-SN-38 [reference compound],therapeutic response (FIG. 2),[4],better therapeutic responses
same,therapeutic response (FIG. 3),[2],better therapeutic responses
hRS7 IgG: unconjugated humanized anti-TROP-2 antibody,specific lysis (ADCC),[9],8.5%
B1,inhibition of tumor growth compared with the SN-38 conjugate of the same antibody,[4]; not shown,more effective at inhibiting growth
same,mice alive at 63 days after tumor injection,[4]; [11],10 of 10
same,shrinkage of the sum of the 3 target lesions in the liver,"[10]; 120 mg every other week, CT at 8 weeks",18%
same,reduction of CA19-9 blood titer,"[10]; baseline value of 12,400",55%
same,hematological toxicity after the first course,[10]; recovers before the second course,Grade 3 neutropenia
B2,mice alive at 63 days after tumor injection,[4]; twice weekly×4 weeks with 250 μg,0 of 10
